Measured values: the supplement of paper PMC9938120

What was measured:
Assay in all cases: drug sensitivity score (DSS3, normalised partial AUC of % inhibition dose-response) (DSS (score)); higher = more sensitive (stronger inhibition of viability); extreme values may be limits of the assay
FMOC02_1 = patient-derived low-grade serous ovarian cancer cells; settings: 72 h; library: FO5A; assay format: 2D, 384-well, CellTiter-Glo
Summary of the method: (§1)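 Cells were dispensed onto 384-well flat clear-bottom plates already holding compounds at five concentrations over a 10,000-fold range, using patient-derived ovarian cancer cells at passage under 10. Incubation lasted 72 h at 37 °C in 5% CO2, after which CellTiter-Glo viability data were processed in Breeze. Higher drug sensitivity scores, each a partial area under the percent-inhibition dose-response curve divided by the log of the upper asymptote, mean more sensitive cells.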

FMOC11 = patient-derived high-grade serous ovarian cancer cells; settings: 72 h; library: FO5A; assay format: 2D, 384-well, CellTiter-Glo
Summary of the method: as §1

FMOC25_1 = patient-derived low-grade serous ovarian cancer cells; settings: 72 h; library: FO4B; assay format: 2D, 384-well, CellTiter-Glo
Summary of the method: as §1

FMOC24 = patient-derived high-grade serous ovarian cancer cells; settings: 72 h; library: FO5A; assay format: 2D, 384-well, CellTiter-Glo
Summary of the method: as §1

FMOC28 = patient-derived low-grade serous ovarian cancer cells; settings: 72 h; library: FO5A; assay format: 2D, 384-well, CellTiter-Glo
Summary of the method: as §1

FMOC02_3 = patient-derived low-grade serous ovarian cancer cells; settings: 72 h; library: FO5A; assay format: 2D, 384-well, CellTiter-Glo
Summary of the method: as §1

FMOC02_2 = patient-derived low-grade serous ovarian cancer cells; settings: 72 h; library: FO5A; assay format: 2D, 384-well, CellTiter-Glo
Summary of the method: as §1

FMOC06 = patient-derived mucinous ovarian cancer cells; settings: 72 h; library: FO5A; assay format: 2D, 384-well, CellTiter-Glo
Summary of the method: as §1

FMOC17 = patient-derived low-grade serous ovarian cancer cells; settings: 72 h; library: FO5A; assay format: 2D, 384-well, CellTiter-Glo
Summary of the method: as §1

FMOC22 = patient-derived mucinous ovarian cancer cells; settings: 72 h; library: FO5A; assay format: 2D, 384-well, CellTiter-Glo
Summary of the method: as §1

FMOC27 = patient-derived low-grade serous ovarian cancer cells; settings: 72 h; library: FO5A; assay format: 2D, 384-well, CellTiter-Glo
Summary of the method: as §1

FMOC09 = patient-derived high-grade serous ovarian cancer cells; settings: 72 h; library: FO5A; assay format: 2D, 384-well, CellTiter-Glo
Summary of the method: as §1

FMOC25_2 = patient-derived low-grade serous ovarian cancer cells; settings: 72 h; library: FO5A; assay format: 2D, 384-well, CellTiter-Glo
Summary of the method: as §1

FMOC03 = patient-derived mucinous ovarian cancer cells; settings: 72 h; library: FO5A; assay format: 2D, 384-well, CellTiter-Glo
Summary of the method: as §1

FMOC04 = patient-derived high-grade serous ovarian cancer cells; settings: 72 h; library: FO5A; assay format: 2D, 384-well, CellTiter-Glo
Summary of the method: as §1

FMOC14 = patient-derived high-grade serous ovarian cancer cells; settings: 72 h; library: FO5A; assay format: 2D, 384-well, CellTiter-Glo
Summary of the method: as §1

Row | Structure (SMILES) | drug sensitivity score (FMOC02_1) | drug sensitivity score (FMOC11) | drug sensitivity score (FMOC25_1) | drug sensitivity score (FMOC24) | drug sensitivity score (FMOC28) | drug sensitivity score (FMOC02_3) | drug sensitivity score (FMOC02_2) | drug sensitivity score (FMOC06) | drug sensitivity score (FMOC17) | drug sensitivity score (FMOC22) | drug sensitivity score (FMOC27) | drug sensitivity score (FMOC09) | drug sensitivity score (FMOC25_2) | drug sensitivity score (FMOC03) | drug sensitivity score (FMOC04) | drug sensitivity score (FMOC14)
1 | N#CC[C@H](C1CCCC1)n1cc(-c2ncnc3[nH]ccc23)cn1 [Ruxolitinib] | 0.5 | 0 | 0 | 1.6 | 0 | 0 | 0.3 | 0 | 0 | 0 | 0 | 0 | 0 | 0 | 0 | 0
2 | Cn1ncnc1[C@H]1c2n[nH]c(=O)c3cc(F)cc(c23)N[C@@H]1c1ccc(F)cc1 [Talazoparib] | 7 | 1.4 | 4.8 | 4.1 | 0.7 | 5.7 | 2.3 | 2.2 | 2.7 | 3.5 | 5.5 | 0.9 | 5.7 | 0.1 | 0.25 | 0.7
3 | COc1cccc2c1c(O)c(C(=O)N(C)c1ccc(C(F)(F)F)cc1)c(=O)n2C [Tasquinimod] | 0 | 0 | 3.9 | 2.3 | 0 | 1 | 0 | 0 | 0 | 0 | 0.4 | 0 | 2.5 | 0 | 0 | 0
4 | Cc1ccc(C(=O)N(CCCN)[C@@H](c2oc3cc(Cl)ccc3c(=O)c2Cc2ccccc2)C(C)C)cc1 | 3.3 | 1.9 | 1.9 | 0 | 5 | 2.5 | 2.4 | 1.1 | 1.3 | 1.3 | 0 | 2.4 | 5.6 | 1.8 | 2.4 | 0
5 | CNC(=O)c1cc(Oc2ccc(NC(=O)Nc3ccc(Cl)c(C(F)(F)F)c3)cc2)ccn1 [Sorafenib] | 0 | 0 | 0 | 0 | 0 | 0 | 0 | 0 | 0.5 | 0 | 0 | 0 | 0 | 0 | 0 | 0
6 | N#Cc1ccc2[nH]c(O)c(-c3ccc(CN4CCOCC4)cn3)c2c1 [AZD-1080] | 1.4 | 0 | 0 | 1.15 | 0 | 5.1 | 0 | 0 | 0.4 | 0 | 0 | 0 | 5.3 | 0 | 0.15 | 0
7 | COCC1(CO)C(=O)C2CCN1CC2 (centres undefined) [APR-246] | 0 | 0 | 0 | 0.05 | 0 | 0 | 0 | 0 | 0 | 0 | 0 | 0 | 0 | 0 | 0 | 0
8 | CN1CCN(c2ccc3nc(-c4c(N)c5c(F)cccc5[nH]c4=O)[nH]c3c2)CC1 [Dovitinib] | 0.6 | 0.1 | 0.2 | 1.6 | 1 | 1.1 | 1.4 | 0 | 0 | 0 | 0 | 0 | 0.4 | 0 | 0 | 0
9 | COc1cc2c(NC3CCN(C(C)C)CC3)nc(N3CCC(F)(F)CC3)nc2cc1OCCCN1CCCC1 [UNC0642] | 4 | 2.3 | 0 | 4.3 | 0 | 2.3 | 1.1 | 0.2 | 2.1 | 0.1 | 0 | 0.2 | 0.7 | 0 | 1.2 | 0.1
10 | C[C@]1(c2nc3c(C(N)=O)cccc3[nH]2)CCCN1 [Veliparib] | 0.4 | 0 | 0.1 | 1.3 | 0 | 3.2 | 1.6 | 0 | 0 | 0 | 1.4 | 0 | 1.6 | 0 | 0 | 0
11 | FC(F)(F)c1ccc(/C=C/c2nc(COc3ccc(CCCCn4ccnn4)cc3)co2)cc1 [Mubritinib] | 0 | 0.6 | 0.1 | 0 | 0 | 0 | 0 | 0.6 | 0 | 3 | 1.7 | 0 | 1.1 | 3.9 | 0 | 0.7
12 | CCCC(CCC)C(=O)O [Valproic acid] | 0 | 0 | 0 | 0 | 0.1 | 0 | 0 | 0 | 0 | 0 | 0 | 0 | 0 | 0 | 0 | 0
13 | CC(C)(C)c1nc(-c2cccc(NS(=O)(=O)c3c(F)cccc3F)c2F)c(-c2ccnc(N)n2)s1 [Dabrafenib] | 5.9 | 0 | 1.8 | 0 | 1.4 | 4.7 | 0.8 | 0 | 0.1 | 0 | 0 | 0 | 4 | 0 | 0 | 0
14 | Clc1ccccc1C(c1ccccc1)(c1ccccc1)n1cccn1 [TRAM-34] | 0 | 0 | 0 | 0 | 1.5 | 0 | 0 | 0 | 0 | 0 | 0 | 0 | 0 | 0 | 0 | 0
15 | CC(C)c1c(C(=O)Nc2ccccc2)c(-c2ccccc2)c(-c2ccc(F)cc2)n1CC[C@@H](O)C[C@@H](O)CC(=O)O [Atorvastatin] | 1 | 3.1 | 0.6 | 6.75 | 5.3 | 1.5 | 1.9 | 1.6 | 2.9 | 4.5 | 0 | 4.9 | 3.2 | 2.9 | 0.65 | 3.2
16 | CCCCNc1ncc(C(=O)NCc2ccc(-n3ccnc3)cc2)c(NC2CCC(O)CC2)n1 (centres undefined) [UNC2881] | 1.4 | 0 | 0 | 0.4 | 1.5 | 2.5 | 2.2 | 0 | 1.3 | 0.4 | 0 | 0 | 1.8 | 0.2 | 0 | 0
17 | COc1cc2nccc(Oc3ccc(NC(=O)NC4CC4)c(Cl)c3)c2cc1C(N)=O [Lenvatinib] | 0 | 0 | 0 | 0 | 0 | 0 | 0 | 0 | 0 | 0 | 0 | 0 | 0.1 | 0 | 0 | 0
18 | Cc1cc(Nc2nc(N[C@@H](C)c3ncc(F)cn3)ncc2Cl)[nH]n1 [AZD1480] | 0.8 | 0 | 0 | 0 | 0 | 1.6 | 0.8 | 0 | 0.1 | 0 | 0 | 0 | 0.3 | 0 | 0 | 0
19 | CO[C@@]12[C@H](COC(N)=O)C3=C(C(=O)C(C)=C(N)C3=O)N1C[C@@H]1N[C@@H]12 [Mitomycin C] | 0 | 1.6 | 3.6 | 0.45 | 0.8 | 1.9 | 0 | 0 | 0 | 0 | 0.1 | 2.7 | 3.7 | 0 | 0 | 0
20 | COC(=O)c1ccc2c(c1)[nH]c1ncnc(NCCCN3CCCCC3)c12 [UM729] | 4.7 | 1.1 | 0 | 0.6 | 3.1 | 2.2 | 3.5 | 0 | 0.2 | 0 | 0.5 | 0 | 1.8 | 0 | 0.1 | 0.1
21 | Nc1cc(F)ccc1NC(=O)/C=C/c1cnn(C/C=C/c2ccccc2)c1 [RGFP966] | 3.1 | 3.2 | 0 | 2.9 | 4.6 | 3.5 | 2.9 | 2 | 0.9 | 1.4 | 0.6 | 0 | 2.5 | 2.9 | 0.6 | 1.9
22 | CC1(C)CCC(CN2CCN(c3ccc(C(=O)NS(=O)(=O)c4ccc(NCC5CCOCC5)c([N+](=O)[O-])c4)c(Oc4cnc5[nH]ccc5c4)c3)CC2)=C(c2ccc(Cl)cc2)C1 [Venetoclax] | 0 | 0 | 0 | 1.8 | 0 | 0 | 0 | 0 | 0 | 0 | 0.3 | 0 | 0 | 0 | 0 | 0
23 | N#CC1(c2ccc(NC(=O)c3cccnc3NCc3ccncc3)cc2)CCCC1 [Apatinib] | 0.3 | 0 | 2.3 | 0.1 | 4.5 | 1.5 | 1.1 | 0 | 0 | 0 | 0 | 0 | 1.5 | 0 | 0.6 | 0
24 | C[C@@H](Oc1ccc2[nH]nc(/C=C/c3cnn(CCO)c3)c2c1)c1c(Cl)cncc1Cl | 6.3 | 2.4 | 1 | 1.7 | 0.6 | 3.9 | 4.2 | 6 | 4.1 | 3.5 | 2.4 | 3.3 | 6.8 | 3.1 | 1.8 | 0
